From patent US9353084B2, “2-amino 3,5,5-trifluoro-3,4,5,6-tetrahydropyridines as BACE1 inhibitors for treatment of Alzheimer's disease” (H. Lundbeck A/S, priority 2014, dated 2016)
Like-named read-outs stand apart in the source and are kept apart here.

How the values were obtained:
[1] = Brain and plasma exposure in rats after oral dosing (DMPK analysis); format: in vivo; settings: male, Sprague Dawley, 3 hours post dose, rat, read-out: Brain/Plasma ratio
Experimental: (§1) Young adult Male Sprague Dawley rats of approximately 250 g weight were purchased from Charles River and received 0-30 mg/kg of vehicle (10% HP betaCD+1M MeSO4, pH 2.5) or test compounds (dissolved in vehicle) only by oral gavage (p.o). The compounds are dosed at a volume of 5 ml/kg. Cohorts of 5-10 animals were established for each treatment condition.
(§2) At T=180 minutes after initial dosing the animals were stunned and decapitated with a guillotine. Trunk-blood was sampled in EDTA coated tubes after decapitation of the animal. The blood was centrifuged at 2200 G at 4° C. for 15 minutes and the plasma was collected and frozen at −80° C. The blood was aliquoted for Aβ ELISA and DMPK analysis Immediately following sacrifice, the brain was extracted and split into 2 halves. The right hemibrains were snap frozen on dry ice and stored at −80° C. The left half was dissected; with the front forebrain taken for Aβ ELISA and the remainder used for DMPK analysis. These samples were also snap frozen on dry ice and stored at −80° C. until use for analysis.
Compounds 1, 5, 17, 18, and 24 were administered at doses of 10 or 30 mg/kg p.o. and brain and plasma samples were collected at 3 hours post dose and the following exposures and reductions in Aβ40 levels were measured as described above.

[2] = biological target: human BACE1 (Homo sapiens (Human), UniProt P56817); assay: BACE1 binding assay (SPA-based, radioligand displacement); settings: pH 4.5, Ki calculated from IC50
Experimental: The binding assay was performed as SPA-based assay using a biotinylated form of human BACE1 recombinantly expressed and subsequently purified from Freestyle HEK293 cells. The binding assay was run in a 50 mM sodium acetate buffer, pH 4.5 containing 50 mM NaCl and 0.03% Tween-20 in white clear bottom 384 plates (Corning #3653). 10 nM (final concentration) radioligand ([^3H]—N-((1S,2R)-1-benzyl-3-cyclopropylamino-2-hydroxy-propyl)-5-(methanesulfonyl-methyl-amino)-N—((R)-1-phenyl-ethyl)-isophthalamide) (TRQ11569 purchased from GE Healthcare) was mixed with test compound at a given concentration, 6 nM (final concentration) human BACE1 and 25 μg Streptavidin coated PVT core SPA beads (RPNQ0007, GE Healthcare Life Sciences) in a total volume of 40 μl. Several concentrations of each test compound were tested in the assay for IC50 determination. The plates were incubated for one hour at room temperature and counted in a Wallac Trilux counter. Total and non-specific binding were determined using buffer and 1 μM (final concentration) of the high affinity BACE1 reference inhibitor (S)-6-[3-chloro-5-(5-prop-1-ynyl-pyridin-3-yl)-thiophen-2-yl]-2-imino-3,6-dimethyl-tetrahydro-pyrimidin-4-one, respectively. For each test compound, a IC50 value (the concentration mediating 50% inhibition of the specific binding of the radioligand) was determined from concentration-response curve and used to calculate the Ki from the equation Ki=IC50/(1+L/Kd), where L and Kd are the final concentration of the radioligand used in the assay and the dissociation constant of the radioligand, respectively. The Kd of the radioligand was determined from saturation binding experiments.

[3] = system: Aβ40; assay: Assessment of Aβ40 levels in rat brain and plasma following BACE1 inhibition (ELISA); format: in vivo; settings: 3 hours post dose, vs vehicle
Experimental: as §1, §2
The cortex samples were thawed slightly on wet ice before they were homogenized with a small volume dispersing instrument (T10 basic ULTRA-TURRAX®) which was set at speed 5 for approximately 5-7 sec. The tissue was processed in a 10 times volume of the weight, for example 100 mg of tissue was homogenized in 1000 μL of Homogenization buffer. Homogenization buffer: 50 ml Milli Q water+[…]+0.2% Diethylamin (DEA)+1 tablet of Complete Protease inhibitor cocktail+1 nM 4-(2-aminoethyl)benzenesulfonyl fluoride hydrochloride irreversible serine protease inhibitor (AEBSF).
After homogenization 450 μL aliquots of the samples are collected into a 1.5 ml Eppendorf tube and placed on wet ice, 0.5% NP-40 (50 ul) was added to all samples and then they were incubated on ice for 30 min. After which all samples were sonicated using an Ultrasonic homogenizer with 20 kHz homogeneous sound (SONOPLUS HD2070, Bandelin Electronic) 10 pulse set at 12-13% power to extract all the Aβ species. The samples were then centrifuged (Ole Dich 157 MPRF Micro centrifuge) at 20000 G for 20 minutes at 4° C. After centrifugation 285 μL of the supernatant was pipetted into 600 μL microtubes tubes and neutralized with 15 μL of 1M Tris-HCL buffer.
WAKO 294-62501 Human/Rat Abeta amyloid (40) kit was used for all ELISA analyses. 30 μL plasma samples or 30 μL of the cortex supernatants generated as described above were placed in 600 μL microtubes tubes on wet ice. To this 30 μL of 8M Urea (AppliChem A1049, 9025) are added to generate a 2-fold dilution. Both plasma and cortex supernatants are incubated on ice for 30 min. Standard rows were prepared from the standard peptide stock provided in the kit and standard diluent containing 1.6M Urea (200 μL 8M Urea+800 μL of standard diluent) and 0.8M Urea (400 μL 8M Urea+3600 μL Standard diluent). A serial 2-fold dilution of Aβ40 from 100 pmol/ml to 0 pmol/L was prepared for the assay.
After incubation with urea, all samples were further diluted by addition of 5 times standard diluent from the Kit. This was done by adding 240 μL Standard Diluent to 60 μL sample/urea mixture, which was then mixed well. 100 μL of each diluted sample was pipetted into designated wells of the ELISA plate in duplicates. The plate was then covered and incubated overnight at 4° C. The following day, the ELISA kit was brought to room temperature before use. The incubated plate was washed 5 times with the 20× washing solution diluted in Milli Q water. 100 μL HRP-conjugate was applied to each well, and the plate was covered and incubates at 4° C. for 1 hr. The wash was repeated again for 5 times. 100 μL 3,3′,5,5′-Tetramethylbenzidine (TMB) solution was applied to each well and the plate was covered and incubated in the dark at room temperature for 30 minutes. […]

human BACE1, sequence (P56817 46-501): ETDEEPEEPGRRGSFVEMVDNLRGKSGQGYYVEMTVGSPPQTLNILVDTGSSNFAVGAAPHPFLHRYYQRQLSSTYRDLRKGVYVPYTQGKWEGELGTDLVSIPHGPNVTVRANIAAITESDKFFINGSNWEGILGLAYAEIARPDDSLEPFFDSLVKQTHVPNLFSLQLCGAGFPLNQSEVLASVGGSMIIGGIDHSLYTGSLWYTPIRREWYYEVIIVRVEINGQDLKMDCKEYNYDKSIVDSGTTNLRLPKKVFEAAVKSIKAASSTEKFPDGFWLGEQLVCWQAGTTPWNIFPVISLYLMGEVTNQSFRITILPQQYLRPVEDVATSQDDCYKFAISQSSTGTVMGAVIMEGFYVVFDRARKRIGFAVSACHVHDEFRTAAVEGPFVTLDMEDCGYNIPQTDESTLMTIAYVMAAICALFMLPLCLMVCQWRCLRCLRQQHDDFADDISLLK

`COc1cnc(C(=O)Nc2ccc(F)c([C@@]3(C)N=C(N)[C@@](C)(F)CC3(F)F)c2)cn1` [Compound 5, N-(3-((2R,5S)-6-amino-3,3,5-trifluoro-2,5-dimethyl-2,3,4,5-tetrahydropyridin-2-yl)-4-fluorophenyl)-5-methoxypyrazine-2-carboxamide] gave a Kp at 3 h ([1]; 10 mg/kg p.o.) of 1.3, a Kp at 3 h ([1]; 30 mg/kg p.o.) of 1.5 and a Ki [2] of 18 nM. The “Aβ40 reduction, Brain Rat” value ([3]; 10 mg/kg p.o.) was 34%, the “Aβ40 reduction, Plasma Rat” value ([3]; 10 mg/kg p.o.) was 34% and the “Aβ40 reduction, Brain Rat” value ([3]; 30 mg/kg p.o.) was 61%. For the same molecule, the “Aβ40 reduction, Plasma Rat” value ([3]; 30 mg/kg p.o.) was 39%.
With `COc1ccc(C(=O)Nc2ccc(F)c([C@@]3(C)N=C(N)[C@@](C)(F)CC3(F)F)c2)nc1` [Compound 17, N-(3-((2R,5S)-6-amino-3,3,5-trifluoro-2,5-dimethyl-2,3,4,5-tetrahydropyridin-2-yl)-4-fluorophenyl)-5-methoxypicolinamide] the Kp at 3 h ([1]; 30 mg/kg p.o.) was 1.48, the Ki [2] was 11 nM and the “Aβ40 reduction, Brain Rat” value ([3]; 30 mg/kg p.o.) was 63%. For the same molecule, the “Aβ40 reduction, Plasma Rat” value ([3]; 30 mg/kg p.o.) was 49%.
`Cc1cc(C#N)cnc1C(=O)Nc1ccc(F)c([C@@]2(C)N=C(N)[C@@](C)(F)CC2(F)F)c1` [Compound 18, N-(3-((2R,5S)-6-amino-3,3,5-trifluoro-2,5-dimethyl-2,3,4,5-tetrahydropyridin-2-yl)-4-fluorophenyl)-5-cyano-3-methylpicolinamide] showed a Kp at 3 h ([1]; 10 mg/kg p.o.) of 0.53, a Kp at 3 h ([1]; 30 mg/kg p.o.) of 0.54 and a Ki [2] of 4.3 nM. The “Aβ40 reduction, Brain Rat” value ([3]; 10 mg/kg p.o.) was 66%, the “Aβ40 reduction, Plasma Rat” value ([3]; 10 mg/kg p.o.) was 54% and the “Aβ40 reduction, Brain Rat” value ([3]; 30 mg/kg p.o.) was 61%. For the same molecule, the “Aβ40 reduction, Plasma Rat” value ([3]; 30 mg/kg p.o.) was 50%.
`C[C@@]1(F)CC(F)(F)[C@@](C)(c2cc(NC(=O)c3cnc(C(F)F)cn3)ccc2F)N=C1N` [Compound 24, N-(3-((2R,5R)-6-amino-3,3,5-trifluoro-2,5-dimethyl-2,3,4,5-tetrahydropyridin-2-yl)-4-fluorophenyl)-5-(difluoromethyl)pyrazine-2-carboxamide] gave a Kp at 3 h ([1]; 10 mg/kg p.o.) of 1.39, a Kp at 3 h ([1]; 30 mg/kg p.o.) of 1.2 and a Ki [2] of 420 nM. For the same molecule, the “Aβ40 reduction, Brain Rat” value ([3]; 10 mg/kg p.o.) was 15%, the “Aβ40 reduction, Plasma Rat” value ([3]; 10 mg/kg p.o.) was 28% and the “Aβ40 reduction, Brain Rat” value ([3]; 30 mg/kg p.o.) was 49%. The “Aβ40 reduction, Plasma Rat” value ([3]; 30 mg/kg p.o.) was 61%.
